The values that follow come from paper PMC6202310 (Molecular Cell, 2018).

≈ marks a conversion by molar mass, not a printed value. Some results are limits rather than exact numbers.

Assay [1] has as its system methicillin-resistant Staphylococcus aureus (MRSA). In words: Agar dilution MIC. (In agar dilution the substance is mixed into plates at graded concentrations.)
The next assay has as its target E. coli RNAP βH526R (Escherichia coli, UniProt P0A8V2, H526R). Format: biochemical. The note with it: at 2.5 mg/mL; mutation at βH526.
In the next assay the target is E. coli RNAP βR143A (Escherichia coli, UniProt P0A8V2, R143A). Format: biochemical. The note with it: βR143A RNAP against wild-type RNAP.
A further assay has as its target E. coli RNAP βH526P (Escherichia coli, UniProt P0A8V2, H526P). It is filed as biochemical. The note with it: at 2.5 mg/mL; mutation at βH526.
The next assay addresses M. smegmatis RNAP (Mycolicibacterium smegmatis, UniProt P60281). In words: In vitro transcription on T7A1 promoter template. Format: biochemical. The note with it: performed as with E. coli RNAP, started with ATP.
The target in the next assay is wild-type E. coli RNAP (Escherichia coli, UniProt P0A8V2). Kind of assay: In vitro transcription on T7A1 promoter template. It is filed as biochemical. The note with it: transcription started with ATP, in the absence of the CpA primer.
The target in a further assay is E. coli RNAP βH526Y (Escherichia coli, UniProt P0A8V2, H526Y). It is filed as biochemical. The note with it: at 2.5 mg/mL; mutation at βH526.

In the case of `CO[C@H]1/C=C/O[C@@]2(C)Oc3c(C)c(O)c4c(O)c(c(/C=N/N5CCN(C)CC5)c(O)c4c3C2=O)NC(=O)/C(C)=C\C=C\[C@H](C)[C@H](O)[C@@H](C)[C@@H](O)[C@@H](C)[C@H](OC(C)=O)[C@@H]1C` [RIF, rifampicin], the MIC in assay [1] (S. aureus Bel 97597) is 2 µg/mL (≈ 2.43 µM); in assay [1] (S. aureus Bel 97598) it was > 128 µg/mL; in assay [1] (S. aureus Fin 54511), > 128 µg/mL; in assay [1] (S. aureus Fin 54518), > 128 µg/mL. In addition, the “inhibition of RNAP” value at E. coli RNAP βH526R, at E. coli RNAP βH526P and against E. coli RNAP βH526Y was “no inhibition” throughout. Further, the “effect of the βR143A mutation on sensitivity” value on E. coli RNAP βR143A is “little effect”. For the same molecule, the “synthesis of the trinucleotide (pppApUpC)” value on M. smegmatis RNAP is listed as “partly allowed”. The “formation of the triphosphorylated trinucleotide, pppApUpC” value on wild-type E. coli RNAP is “allowed some of its production”. Besides, the “inhibition of formation of the first dinucleotide, pppApU” value on wild-type E. coli RNAP stood at 3 fold.

For orientation: MIC means the smallest concentration in the dilution series that meets the test's criterion for growth inhibition. A high value points to weaker potency.
